Reference: patent US20060100224A1, “Piperidine ouracil used as a medicament for treating bacterial infections” (priority 2002, published 2006)

These molecules were tested against T1, Pol III from S. aureus (PolC) (Staphylococcus aureus, UniProt P0C1P9) (assay: Determination of the IC50 for Polymerase III (PolC, luciferase-coupled pyrophosphate detection)). Details: purified PolC ~2 nM, 30° C., 30 min, activated calf thymus DNA.
T1 construct: His tag (pET15b) (N); made in house; host or cells: E. coli BL21(DE3)
T1 sequence (P0C1P9 1-1435): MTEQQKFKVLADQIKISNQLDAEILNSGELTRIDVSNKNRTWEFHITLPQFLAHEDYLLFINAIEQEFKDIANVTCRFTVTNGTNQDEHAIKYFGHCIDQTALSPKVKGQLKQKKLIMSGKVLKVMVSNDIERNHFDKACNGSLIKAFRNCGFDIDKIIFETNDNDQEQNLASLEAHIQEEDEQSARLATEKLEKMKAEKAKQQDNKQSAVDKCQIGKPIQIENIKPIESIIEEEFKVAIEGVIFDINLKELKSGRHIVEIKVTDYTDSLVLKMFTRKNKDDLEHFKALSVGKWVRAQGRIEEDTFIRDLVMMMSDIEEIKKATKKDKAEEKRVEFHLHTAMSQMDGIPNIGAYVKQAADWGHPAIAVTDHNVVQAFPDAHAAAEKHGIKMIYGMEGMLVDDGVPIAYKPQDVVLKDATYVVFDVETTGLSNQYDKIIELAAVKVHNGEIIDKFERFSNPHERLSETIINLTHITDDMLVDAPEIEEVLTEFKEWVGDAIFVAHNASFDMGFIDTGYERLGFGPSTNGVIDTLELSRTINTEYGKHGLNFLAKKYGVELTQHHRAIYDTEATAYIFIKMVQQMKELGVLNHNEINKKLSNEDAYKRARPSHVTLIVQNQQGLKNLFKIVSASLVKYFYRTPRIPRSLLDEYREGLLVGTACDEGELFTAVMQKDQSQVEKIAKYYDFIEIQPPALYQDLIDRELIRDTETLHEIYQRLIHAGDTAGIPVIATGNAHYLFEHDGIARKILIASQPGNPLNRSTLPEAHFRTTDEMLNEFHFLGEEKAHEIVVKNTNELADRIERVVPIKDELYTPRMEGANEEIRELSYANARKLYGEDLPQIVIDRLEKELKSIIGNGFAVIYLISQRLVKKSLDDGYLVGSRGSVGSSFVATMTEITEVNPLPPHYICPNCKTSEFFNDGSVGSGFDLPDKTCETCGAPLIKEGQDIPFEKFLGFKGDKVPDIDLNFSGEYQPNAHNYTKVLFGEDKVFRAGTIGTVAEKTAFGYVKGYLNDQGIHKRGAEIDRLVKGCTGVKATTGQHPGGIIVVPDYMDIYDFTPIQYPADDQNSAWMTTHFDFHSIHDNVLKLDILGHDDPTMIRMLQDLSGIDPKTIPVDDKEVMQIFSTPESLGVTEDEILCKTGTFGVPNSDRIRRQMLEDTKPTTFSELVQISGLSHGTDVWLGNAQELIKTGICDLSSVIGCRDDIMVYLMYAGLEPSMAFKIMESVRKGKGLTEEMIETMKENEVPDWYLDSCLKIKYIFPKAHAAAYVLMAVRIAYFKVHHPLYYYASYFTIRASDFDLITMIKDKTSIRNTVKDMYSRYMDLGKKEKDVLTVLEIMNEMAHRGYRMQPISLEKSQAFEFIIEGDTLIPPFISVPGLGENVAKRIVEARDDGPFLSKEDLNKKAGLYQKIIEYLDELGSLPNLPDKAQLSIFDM
Assay type: biochemical
Source text: Cloning, Expression and Purification of Pol III from S. aureus
To clone polC with an N-terminal His tag, the structural gene polC is amplified from S. aureus genomic DNA with the aid of PCR. The primers SAPol 31 5′-[…]-3′ and SAPolrev 5′-[…]-3′ are used to introduce the NdeI and BamHI restriction cleavage sites respectively in front of and behind the amplified gene. After the PCR product which is 4300 bp in size has been digested with NdeI and BamHI, it is ligated into the vector pET15b (Novagen, USA), which has likewise been digested with NdeI and BamHI, and transformed into E. coli XL-1 Blue.
After transformation into E. coli BL21(DE3), the cells are cultivated for expression of PolC at 30° C. in LB medium with 100 μg/ml ampicillin until the OD595 nm is 0.5, cooled to 18° C. and, after addition of 1 mM IPTG, incubated for a further 20 hours. The cells are harvested by centrifugation, washed once in PBS with 1 mM PMSF and taken up in 50 mM NaH2PO4 pH 8.0, 10 mM imidazole, 2 mM β-mercaptoethanol, 1 mM PMSF, 20% glycerol. The cells are disrupted using a French press at 12,000 psi, the cell detritus is removed by centrifugation ([…]×g, 120 min, 4° C.) and the supernatant is stirred with an appropriate amount of Ni-NTA-agarose (from Quiagen, Germany) at 4° C. for 1 hour. After the gel matrix has been packed into a column it is washed with 50 mM NaH2PO4 pH 8.0, 2 mM β-mercaptoethanol, 20 mM imidazole, 10% glycerol, and the purified protein is then eluted with the same buffer containing 100 mM imidazole. The purified protein is mixed with 50% glycerol and stored at −20° C.
Determination of the IC50 for Polymerase III
The activity of PolC is measured in an enzymatically coupled reaction, with the pyrophosphate formed during the polymerization being converted with the aid of ATP sulfurylase into ATP, which is detected using firefly luciferase. The reaction mixture contains, in a final volume of 50 μl, 50 mM Tris/Cl pH 7.5; 5 mM DTT, 10 mM MgCl2, 30 mM NaCl, 0.1 mg/ml BSA, 10% glycerol, 20 μM each dATP, dTTP, dCTP, 2U/ml activated calf thymus DNA (from Worthington, USA), 20 μM APS and 0.06 mM luciferin. The reaction is started by adding purified PolC in a final concentration of ˜2 nM and is incubated at 30° C. for 30 min. The amount of pyrophosphate formed is then converted into ATP by adding ATP sulfurylase (Sigma, USA) in a final concentration of 5 nM and incubating at 30° C. for 15 min. After addition of 0.2 nM firefly luciferase, the luminescence is measured in a luminometer for 60 s. The IC50 is reported as the concentration of an inhibitor which leads to 50% inhibition of the enzymic activity of PolC.

| SMILES | IC50 [nM] |
| --- | --- |
| O=C(c1csnn1)N1CCC(Cn2c(=O)cc(Nc3ccc4c(c3)CCC4)[nH]c2=O)CC1 [Example 13] | 90 |
| Cc1nnsc1-c1nc(C(=O)N2CCC(Cn3c(=O)cc(Nc4ccc5c(c4)CCC5)[nH]c3=O)CC2)cs1 [Example 21] | 110 |
| Cc1ccoc1C(=O)N1CCCC(Cn2c(=O)cc(Nc3ccc4c(c3)CCC4)[nH]c2=O)C1 (stereo not drawn) [Example 39] | 330 |
| O=C(c1cccnc1)N1CCCC(Cn2c(=O)cc(Nc3ccc4c(c3)CCC4)[nH]c2=O)C1 (stereo not drawn) [Example 26] | 220 |
| CCc1cc(Nc2cc(=O)n(CC3CCN(C(=O)c4ccno4)CC3)c(=O)[nH]2)ccc1C [Example 9] | 140 |
| O=C(c1nc[nH]n1)N1CCCC(Cn2c(=O)cc(Nc3ccc4c(c3)CCC4)[nH]c2=O)C1 (stereo not drawn) [Example 17] | 340 |
